In patent US10294219B2 (priority 2015, dated 2019):
Where two headings read alike, the source gives them in different places.

Assays:
[1] = Light stability assessment (LS-3000 light test chamber, HPLC purity after illumination); assay type: physicochemical; settings: 1.2 million lux·hours of illumination, 4400 lux for 12 days, layer no more than 1 mm
Description: Samples of different crystal forms were placed in a watch glass and spread to a thin layer with thickness of no more than 1 mm, placed in a LS-3000 light test chamber with a light intensity of 4400 lux for 12 days.
(2) The purity of the sample after illumination was checked by HPLC and compared with the initial purity.

[2] = Changes of crystal form at different temperatures; assay type: physicochemical
[3] = Solvent-based screening of crystal form changes; assay type: physicochemical
[4] = data from US20130324496A1, cited from earlier work
[5] = 100 mg suspended in 200 μL Ethyl acetate
[6] = 100 mg suspended in 200 μL MTBE

COC(=O)N[C@H](C(=O)N1CC2(CC2)C[C@H]1c1ncc(-c2ccc3c(c2)C(F)(F)c2cc(-c4ccc5nc([C@@H]6[C@H]7CC[C@H](C7)N6C(=O)[C@@H](NC(=O)OC)C(C)C)[nH]c5c4)ccc2-3)[nH]1)C(C)C [crystal form A of Ledipasvir, LDV-acetonitrile-MTBE ternary solvate]
HPLC purity decreased, % [1]: 2.0% | HPLC purity decreased, % ([1]; listed as LDV-acetonitrile-MTBE ternary solvate): 2.0% | HPLC purity decreased, % ([1]; listed as Ledipasvir crystal form A): 2.0% | Crystal Form ([2]; 120° C., nitrogen protection): crystal form C | Crystal Form ([2]; 120° C., nitrogen protection, listed as crystal form A): crystal form C | Crystal Form ([2]; 180° C., nitrogen protection): amorphous form | Crystal Form ([2]; Room temperature): crystal form A | Solvent-based screening result (change of crystal form) ([3]; 100 mg suspended in 200 μL ACN): crystal form D | Solvent-based screening result (change of crystal form) [3, 5]: solution | Solvent-based screening result (change of crystal form) [3, 6]: amorphous form

COC(=O)N[C@H](C(=O)N1CC2(CC2)C[C@H]1c1ncc(-c2ccc3c(c2)C(F)(F)c2cc(-c4ccc5nc([C@@H]6[C@H]7CC[C@H](C7)N6C(=O)[C@@H](NC(=O)OC)C(C)C)[nH]c5c4)ccc2-3)[nH]1)C(C)C [Ledipasvir amorphous, Ledipasvir]
HPLC purity decreased, % ([4]; 1.2 million lux·hours): 8.3%

COC(=O)N[C@H](C(=O)N1CC2(CC2)C[C@H]1c1ncc(-c2ccc3c(c2)C(F)(F)c2cc(-c4ccc5nc([C@@H]6[C@H]7CC[C@H](C7)N6C(=O)[C@@H](NC(=O)OC)C(C)C)[nH]c5c4)ccc2-3)[nH]1)C(C)C [crystal form I of Ledipasvir]
HPLC purity decreased, % ([4]; 900,000 lux·hours): 6.6%

COC(=O)N[C@H](C(=O)N1CC2(CC2)C[C@H]1c1ncc(-c2ccc3c(c2)C(F)(F)c2cc(-c4ccc5nc([C@@H]6[C@H]7CC[C@H](C7)N6C(=O)[C@@H](NC(=O)OC)C(C)C)[nH]c5c4)ccc2-3)[nH]1)C(C)C [crystal form B of Ledipasvir, LDV-acetone-MTBE ternary solvate]
HPLC purity decreased, % [1]: 0.6% | HPLC purity decreased, % ([1]; listed as LDV-acetone-MTBE ternary solvate): 0.6% | HPLC purity decreased, % ([1]; listed as Ledipasvir crystal form B): 0.6% | Crystal Form ([2]; 120° C., nitrogen protection): crystal form E | Crystal Form ([2]; 120° C., nitrogen protection, listed as crystal form B): crystal form E | Crystal Form ([2]; 180° C., nitrogen protection): amorphous form | Crystal Form ([2]; Room temperature): crystal form B | Solvent-based screening result (change of crystal form) ([3]; 100 mg suspended in 200 μL ACN): crystal form D | Solvent-based screening result (change of crystal form) [3, 5]: solution | Solvent-based screening result (change of crystal form) [3, 6]: amorphous form

COC(=O)N[C@H](C(=O)N1CC2(CC2)C[C@H]1c1ncc(-c2ccc3c(c2)C(F)(F)c2cc(-c4ccc5nc([C@@H]6[C@H]7CC[C@H](C7)N6C(=O)[C@@H](NC(=O)OC)C(C)C)[nH]c5c4)ccc2-3)[nH]1)C(C)C [monoacetone solvate]
HPLC purity decreased, % ([4]; 1.2 million lux·hours): 6.3%

COC(=O)N[C@H](C(=O)N1CC2(CC2)C[C@H]1c1ncc(-c2ccc3c(c2)C(F)(F)c2cc(-c4ccc5nc([C@@H]6[C@H]7CC[C@H](C7)N6C(=O)[C@@H](NC(=O)OC)C(C)C)[nH]c5c4)ccc2-3)[nH]1)C(C)C [crystal form II of Ledipasvir]
HPLC purity decreased, % ([4]; 1.2 million lux·hours): 6.3%

COC(=O)N[C@H](C(=O)N1CC2(CC2)C[C@H]1c1ncc(-c2ccc3c(c2)C(F)(F)c2cc(-c4ccc5nc([C@@H]6[C@H]7CC[C@H](C7)N6C(=O)[C@@H](NC(=O)OC)C(C)C)[nH]c5c4)ccc2-3)[nH]1)C(C)C [Ledipasvir diacetone solvate]
HPLC purity decreased, % ([4]; 1.2 million lux·hours): 6.3%
